In patent US6060451A, “Thrombin inhibitors based on the amino acid sequence of hirudin” (The National Research Council of Canada, priority 1995, dated 2000):
pIC50, pKi: −log10 of the molar value. Values joined by “and” are separate entries in the source; they are usually repeats but may differ in a detail not shown here. Equal values may be shown once. Non-standard residues stand in square brackets, D forms with d.

Legend:
[1] = test system: venous thrombosis in vena cava; assay: Venous thrombosis model (balloon catheter induced-injury and stasis in vena cava); format: in vivo, rat; conditions: rats
Experimental: Rats ranging in weight from 350 g-450 g were anaesthetized with urethane [50%] at 1500 mg/kg IP. The abdomen and neck were shaved and prepared for surgery.
An incision was made from the base of the sternum to approximately 10-20 mm up from the penile sheath. Another incision was made across the end of the incision (90 degree) to create a flap to be hemostat open. […] Two sutures were loosely looped around the vein(1) and the vein and artery(2), just posterior to the renal veins and arteries. All other branches coming off dorsally from the vena cava were ligated as well as any other veins which may branch of this vein (approximately 4-6 depending on rat). Two more sutures were looped around the vein(1) and artery and vein(2) at the bifurcation of the femoral vein and artery. The right jugular vein was isolated, for later injection of compound.
An incision in the upper interior leg was made and the femoral vein and artery were exposed. The femoral vein was isolated and two sutures were looped around it. One suture was ligated distally, and the other one was pulled tight (proximal) to stop blood flow through the vessel. A very small incision was made into the vein and a 2F fogarty catheter was inserted. The catheter was fed up the femoral vein to the upper sutures (near the renal veins). At this point, inject the compound via the isolated right jugular vein and wait 1 minute. At 1 minute inflate the fogarty catheter with enough saline to distend the vena cava, but still allowing the catheter to be pulled back down to the point of femoral bifurcation without bursting the vessel. This procedure was repeated 3 times. After the third passage, the catheter was removed and as quickly as possible, the femoral incision was ligated with the proximal suture and the suture which was looped around only the vena cava was ligated to stop return flow and allow thrombus growth and the timer was set for 30 minutes.
At this point, the intestines may be placed back in the body cavity, and moistened with saline if any drying has occurred, and skin kept closed with hemostat. […]

[2] = test system: activated partial thromboplastin time; assay: Increase in APTT, bolus plus infusion model; format: in vivo, rat; parameters: Infusion Dose needed to cause 2-4 fold increase in APTT: unit not given here; conditions: intravenous bolus followed by infusion
[3] = test system: carotid artery thrombosis; assay: Ferric chloride injury-induced thrombosis model in carotid artery; conditions: rat carotid artery, FeCl3 injury; for Dose to double patency time: control patency time 19 ± 1 min
[4] = target: T1, thrombin (Homo sapiens, UniProt P00734); assay: Antithrombin activity in vitro, Ki (Table III); format: biochemical; conditions: first test where two are given; means for 3-5 observations
Experimental: The reactions were initiated by addition of the substrate dissolved in 0.1 M Tris-HCl buffer, pH 7.8 to a preincubated solution of enzyme (0.4 or 0.04 nM) and variable concentrations of inhibitor dissolved in the same buffer. Initial velocities were recorded and Ki values were determined graphically by weighted linear regression of Dixon plots in the case of competitive inhibition, or by the method of Baici (Baici, 1981) for hyperbolic inhibition. Fluorogenic assays were conducted using the same conditions and instrument as above operating in the fluorescence mode in the Ratio (λex=383 nm, λem=455 nm). Fluorescence intensities were calibrated with 7-amino-4-methyl coumarin solution of known concentration. The specificity of the synthetic peptides of the present invention for human α-thrombin may also be determined by comparing their relative inhibitory activities towards both human α-thrombin and bovine α-thrombin and trypsin by comparing Ki values obtained in the amidolytic assay of thrombin activity.

[5] = target: T1, thrombin; assay: Thrombin time in buffer containing fibrinogen (dTT); format: biochemical; conditions: read-out: IC50 dTT (concentration required to double thrombin time)
Excerpt: *Concentration of compound required to double thrombin time in buffer

[6] = test system: human plasma clotting; assay: Human plasma clotting time; format: biochemical; conditions: read-out: IC50 plasma clotting time (concentration required to inhibit human plasma clotting time by 50%)
Experimental: Thus, for the determination of prothrombin time, 50 μl of reconstituted citrated normal human plasma (Sigma, St-Louis, Mo.) is mixed with 50 μl of thromboplastin solution at 37° C. in a 400 μl cuvette. […] The clotting time is recorded following recalcification with 100 μl of 25 mM CaCl2. The clotting time in the absence of inhibitor was between 19-22 sec.
The same procedure is adopted for the determination of activated partial thromboplastin time except that reconstituted plasma is activated for 3 minutes with cephalin (Sigma, St-Louis, Mo.).
**Concentration of compound required to inhibit human plasma clotting tim

[7] = test system: platelets; assay: Thrombin-induced platelet aggregation; format: cell-based
Experimental: The inhibitory activity of some of the peptides of the present invention toward thrombin is reflected by their ability to inhibit thrombin-mediatedplatelet aggregation as shown in FIG. 2. Platelet rich plasma containing variable concentrations of P79 is treated with thrombin. Platelet aggregation, reflected by increased light transmittance is measured on a Bio Data PAP-4 aggregometer.

[8] = test system: platelet deposition on arterial media; assay: Pig angioplasty model, ex vivo platelet deposition on arterial media; format: in vivo
Experimental: The study investigates the dose range required to inhibit platelet deposition on arterial media and aggregation ex vivo in the pig using a bolus and infusion regimen of the compounds of the invention. The study was carried out according to Lam, J. Y. T. et al., Circulation 84:2, August 1991, 814-820. A brief outline of the protocol follows.
Normal 3-4 month old pigs were used. In all pigs, autologous platelets were labeled with 300-400 μCi ^111 In-tropolone 18-24 hours before angioplasty. The pigs were sedated with 300 mg i.m. ketamine. After inhalation of the ether, the pigs were intubated, mechanically ventilated with room air by a respirator and maintained anesthetized with 0.5% halothane. Immediately after catheter insertion, a single bolus of heparin was administered to animals receiving platelet-inhibitor therapy and their matching controls corresponding to a dose less than 3.1 units/kg/min. Heparin was not administered to animals receiving hirudin or their matching controls.
An 8F balloon dilation catheter was advanced under fluoroscopic control through a right femoral cut down into the left and right common carotid arterial segment between the fifth and fourth vertebrae. Five inflations were performed, 30 seconds each at 6 atm with 60 seconds between inflations. The angiographic lumen diameter before dilation ranged from 5 to 6 mm during dilation, the diameter of the inflated balloon within the artery was not more than 10% greater than the original arterial lumen. […]
The platelet deposition on each dilated artery was calculated from the platelet counts and ^111 In activity on the arterial wall and in the blood obtained. The percentage of radioactivity bound to platelets was determined and the number of platelets per counts per minute was calculated from known blood platelet counts. The number of platelets deposited on the arterial segments per square centimeter was calculated by dividing the arterial segment counts per minute by both the number of platelets per counts per minute and the arterial surface area.

Row | Substance | Dose needed to achieve patency [1] | Bolus needed to achieve the same increase in APTT [2] | Infusion needed to achieve the same increase in APTT [2] | Dose needed to cause a doubling in patency time [3] | pKi [4] | pIC50 [5] | pIC50 [6] | pIC50 [7] | Minimum Bolus dose needed to achieve patency ([1]; i.v. bolus) | Bolus Dose needed to cause 2-4 fold increase in APTT [2] | Infusion Dose needed to cause 2-4 fold increase in APTT [2] | Decrease of platelet deposition on arterial media relative to baseline control, mean ([8]; four animals) | Platelet deposition after drug infusion, X±SEM ([8]; i.v. bolus 0.2 mg/kg then infusion 0.2 mg/kg/hr, four animals, paired T P=0.0001) | Platelet deposition after drug infusion, single animals ([8]; i.v. bolus 0.2 mg/kg then infusion 0.2 mg/kg/hr, mean of three determinations per animal, animals 1-4, listed as BCH-1710) | Dose to double patency time [3]
1 | heparin [reference compound] | 10-15 U | 25 U | 0.5 U/kg/min | 200 U/kg |  |  |  |  |  |  |  |  |  |  | 
2 | Ac(D-Phe)-Pro-Arg-(CH2)4 (CO)--[NH--CH2 --CH=CH--CH2 --(CO)]2 -DFEPIPL-OH (Ac-[dF]PR[(CH2)4CO][NHCH2CH:CHCH2CO][NHCH2CH:CHCH2CO]DFEPIPL-OH; numbers in words are those of the source; also: Arg carbonyl bonded to (CH2)4 (non-amide backbone link)) [P184] |  |  |  |  | 8.82 | 7.98 | 7.28 | 8.22 | 0.5 to 2 mg/kg | 1 mg/kg | 125 | 61.2% | 39.8±12.7 % of control | 31.9 % of control and 23.7 % of control and 3.7 % of control and 84.3 % of control | 1 to 2 mg/kg
3 | (D-Phe)-Pro-Arg-(CH2)4 (CO)--[NH(CH2)4 (CO)]2 -DF-(4-thiahomoGlu)-PIPL-TFA salt [BCH-2758] |  |  |  |  | 9.02 | 8.31 | 7.52 | 8.00 |  |  |  |  |  |  | 4 mg/kg
